Data: US6924302B2, “Substituted triazole diamine derivatives as kinase inhibitors” (Ortho McNeil Pharmaceutical, Inc., priority 2000, dated 2005)
Like-named read-outs stand apart in the source and are kept apart here.

Legend:
Insulin Receptor Kinase = Insulin Receptor Kinase (Homo sapiens, UniProt P06213); experiment: Kinase Selectivity Assay Insulin Receptor Kinase; type: biochemical; settings: Kinase Selectivity, Tables 2a-2k; read-out: Insulin R Kinase IC50
Experimental: (§1) Assays to test compound inhibition of other kinases were preformed using methods that measure the amount of phosphorylation of a biotinylated peptide substrate. Biotinylated peptide substrates were selected from the literature as appropriate for the enzyme being evaluated. […] Assay conditions vary slightly for each protein kinase, for example, insulin receptor kinase requires 10 mM MnCl2 for activity and Calmodulin-dependent protein kinase requires calmodulin and 10 mM CaCl2. These assay conditions are known in the art. The reaction mixture was dispensed into the wells of a streptavidin coated Flashplate and 1 μl drug stock in 100% DMSO was added to a 100 μl reaction volume resulting in a final concentration of 1% DMSO on the reaction. Enzyme was diluted in 50 mM Tris-HCl pH=8.0, 0.1% BSA and add to each well. The reaction was incubated for one hour at 30° C. in the presence of compound. After one hour the reaction mix was aspirated from the plate and the plate was washed with PBS containing 100 mM EDTA. The plate was read on a scintillation counter to determine ^33P-γ-ATP incorporated into the immobilized peptide. Test compounds were assayed in duplicate at 8 concentrations [100 uM, 10 uM, 1 uM, 100 nM, 10 nM, 1 nM, 100 pM, 10 pM]. A maximum and minimum signal for the assay was determined on each plate. The IC50 was calculated from the dose response curve of the percent inhibition of the maximum signal in the assay according to the formula [max signal—background/test compound signal—background (100)=% inhibition] by graphing the percent inhibition against the log concentration of test compound. Known inhibitor compounds appropriate for the kinase being assayed were also included on each plate.
(§2) CDK2 in complex with cyclin A is commercially available (Upstate Biotech, Lake Placid, N.Y.). The CDK4 complex was composed of a mouse CDK4 protein and a mouse Cyclin D1 protein (The mouse CDK4 protein was genetically fused to an N-terminal Flag-epitope tag and the mouse Cyclin D1 protein was fused with an N-terminal AU-1 epitope tag. The genes encoding these proteins were transferred to commercially available baculoviral vectors. The recombinant CDK4/D1 complex was then made by co-infecting commercially available insect cells with viruses carrying these two constructs). […] ERK-1 protein (Discontinued from Calbiochem). EGFR (epidermal growth factor receptor) is purified from human A431 cell membranes (Sigma, St. Louis, Mo., Cat.# E3641).

Protein Kinase A = target: T1, Protein Kinase A (Bos taurus, UniProt P00517); experiment: Kinase Selectivity Assay Protein Kinase A; type: biochemical, bovine; settings: Kinase Selectivity, Tables 2a-2k; read-out: PKA IC50
T1 construct: purified from bovine heart; purchased Upstate Biotech 14-114; host or cells: bovine heart
Experimental: as §1, §2

[1] = target: T2, Casein Kinase 1 (CK1 delta isoform) (Rattus norvegicus, UniProt Q06486); experiment: Kinase Selectivity Assay Casein Kinase 1; type: biochemical; settings: Tables 2a-2k, read-out: Caseine Kinase 1 IC50
T2 construct: a truncation at amino acid 318 of the C-terminal portion of the rat CK1 delta isoform; purchased New England Biolabs 6030; host or cells: E. coli
T2 sequence (Q06486 1-317): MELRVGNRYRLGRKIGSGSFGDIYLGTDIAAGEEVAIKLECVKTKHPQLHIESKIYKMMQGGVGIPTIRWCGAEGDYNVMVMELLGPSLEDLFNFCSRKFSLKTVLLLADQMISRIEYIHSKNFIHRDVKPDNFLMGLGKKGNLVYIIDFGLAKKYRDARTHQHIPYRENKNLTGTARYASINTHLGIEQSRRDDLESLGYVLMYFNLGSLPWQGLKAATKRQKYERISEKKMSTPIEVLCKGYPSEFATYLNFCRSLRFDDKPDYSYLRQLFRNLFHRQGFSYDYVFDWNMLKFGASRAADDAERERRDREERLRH
Experimental: as §1, §2

[2] = target: T3, Casein Kinase 2 (alpha and beta subunits) (Homo sapiens, UniProt P68400); experiment: Kinase Selectivity Assay Casein Kinase 2; type: biochemical; settings: Kinase Selectivity, Tables 2a-2k; read-out: Caseine Kinase 2 IC50
T3 construct: purchased New England Biolabs 6010; host or cells: E. coli
T3 sequence (P68400 whole entry): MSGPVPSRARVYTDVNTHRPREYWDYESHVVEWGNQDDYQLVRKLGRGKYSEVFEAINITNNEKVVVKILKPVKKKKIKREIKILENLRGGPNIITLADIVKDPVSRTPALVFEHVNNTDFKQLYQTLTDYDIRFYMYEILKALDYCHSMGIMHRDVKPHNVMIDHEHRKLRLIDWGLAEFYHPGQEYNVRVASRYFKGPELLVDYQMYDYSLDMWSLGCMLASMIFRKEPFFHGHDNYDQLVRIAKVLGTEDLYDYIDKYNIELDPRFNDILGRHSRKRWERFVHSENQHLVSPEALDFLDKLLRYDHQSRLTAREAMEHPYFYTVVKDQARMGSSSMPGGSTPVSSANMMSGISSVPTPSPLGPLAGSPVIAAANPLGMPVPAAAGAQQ
T3 sequence (P67870 whole entry partner): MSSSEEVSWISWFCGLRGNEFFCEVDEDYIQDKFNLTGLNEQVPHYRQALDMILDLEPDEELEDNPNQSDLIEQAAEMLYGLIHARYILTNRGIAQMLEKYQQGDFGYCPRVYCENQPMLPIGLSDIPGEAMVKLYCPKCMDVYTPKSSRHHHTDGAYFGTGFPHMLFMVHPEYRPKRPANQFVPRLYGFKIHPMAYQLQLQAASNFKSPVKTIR
Experimental: as §1, §2

[3] = target: T4, Calmodulin Kinase (calmodulin-dependent protein kinase 2) (Rattus norvegicus, UniProt P11275); experiment: Kinase Selectivity Assay Calmodulin Kinase; type: biochemical; settings: Kinase Selectivity, Tables 2a-2k; read-out: Calmodulin Kinase 2 IC50
T4 construct: a truncated version of the alpha subunit of the rat protein; purchased New England Biolabs 6060; host or cells: insect cells
Experimental: as §1, §2

[4] = target: T5, Glycogen Synthase Kinase-3 (beta isoform) (Oryctolagus cuniculus, UniProt G1T8E2); experiment: Kinase Selectivity Assay Glycogen Synthase Kinase-3; type: biochemical, rabbit; settings: Kinase Selectivity, Tables 2a-2k; read-out: GSK-3 IC50
T5 construct: purchased New England Biolabs 6040; host or cells: E. coli
T5 sequence (G1T8E2 1-432): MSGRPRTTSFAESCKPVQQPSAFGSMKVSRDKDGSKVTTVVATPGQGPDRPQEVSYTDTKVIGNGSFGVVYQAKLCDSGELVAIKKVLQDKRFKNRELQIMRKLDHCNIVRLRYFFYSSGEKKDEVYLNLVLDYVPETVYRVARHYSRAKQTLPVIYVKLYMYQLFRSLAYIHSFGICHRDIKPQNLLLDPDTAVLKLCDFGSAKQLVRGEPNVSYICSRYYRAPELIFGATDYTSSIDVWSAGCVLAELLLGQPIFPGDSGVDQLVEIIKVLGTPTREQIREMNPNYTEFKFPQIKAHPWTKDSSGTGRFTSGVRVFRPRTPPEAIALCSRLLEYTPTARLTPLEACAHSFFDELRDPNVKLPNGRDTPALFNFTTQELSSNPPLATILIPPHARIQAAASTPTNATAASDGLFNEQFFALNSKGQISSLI
Experimental: as §1, §2

[5] = target: T6, MAP Kinase (ERK-2 isoform) (Rattus norvegicus, UniProt P63086); experiment: Kinase Selectivity Assay MAP Kinase (ERK-2); type: biochemical; settings: Kinase Selectivity, Tables 2a-2k; read-out: ERK 2 IC50
T6 construct: polyhistidine (N); host or cells: E. coli
T6 sequence (P63086 whole entry, canonical isoform): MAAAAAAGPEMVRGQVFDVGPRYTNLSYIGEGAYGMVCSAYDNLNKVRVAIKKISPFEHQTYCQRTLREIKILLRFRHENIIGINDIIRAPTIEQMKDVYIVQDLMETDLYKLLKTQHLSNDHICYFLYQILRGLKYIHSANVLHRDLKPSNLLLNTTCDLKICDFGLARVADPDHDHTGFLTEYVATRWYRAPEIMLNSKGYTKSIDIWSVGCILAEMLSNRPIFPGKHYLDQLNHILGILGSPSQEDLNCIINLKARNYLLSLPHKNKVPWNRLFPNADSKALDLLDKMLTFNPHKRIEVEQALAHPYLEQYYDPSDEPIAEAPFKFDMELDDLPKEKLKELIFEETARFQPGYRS
Experimental: as §1, §2

[6] = target: T7, PDGF-R (platelet derived growth factor receptor) beta subunit kinase domain (Homo sapiens, UniProt P09619); experiment: Kinase Selectivity Assay PDGF-R; type: biochemical; settings: Kinase Selectivity, Tables 2a-2k; read-out: PDGF-R kinase IC50
T7 construct: nucleotides 1874-3507 of the human PDGF-R beta subunit kinase domain; polyhistidine (N)
T7 sequence (P09619 564-1106): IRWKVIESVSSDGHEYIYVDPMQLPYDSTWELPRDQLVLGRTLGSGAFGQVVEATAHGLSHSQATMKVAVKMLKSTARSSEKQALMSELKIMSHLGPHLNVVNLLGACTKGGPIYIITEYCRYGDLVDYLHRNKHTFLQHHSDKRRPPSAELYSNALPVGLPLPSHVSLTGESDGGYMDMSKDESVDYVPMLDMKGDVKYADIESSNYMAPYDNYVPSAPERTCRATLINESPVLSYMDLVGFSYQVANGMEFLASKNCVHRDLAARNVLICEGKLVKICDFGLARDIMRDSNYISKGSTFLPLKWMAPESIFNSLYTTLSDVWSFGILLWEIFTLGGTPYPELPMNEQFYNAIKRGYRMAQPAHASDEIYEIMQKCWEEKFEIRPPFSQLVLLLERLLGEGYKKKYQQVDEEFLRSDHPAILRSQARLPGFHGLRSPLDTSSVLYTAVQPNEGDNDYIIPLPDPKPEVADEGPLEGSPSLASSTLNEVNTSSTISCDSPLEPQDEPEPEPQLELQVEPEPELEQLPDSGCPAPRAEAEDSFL
Experimental: as §1, §2

[7] = target: T8, HER2 (human epidermal growth factor receptor-2) (Homo sapiens, UniProt P04626); experiment: Kinase Selectivity Assay HER2; type: biochemical
T8 construct: begins at amino acid 676 followed by the remainder of the HER2 cytoplasmic domain; polyhistidine (N)
T8 sequence (P04626 676-1255 limits assumed): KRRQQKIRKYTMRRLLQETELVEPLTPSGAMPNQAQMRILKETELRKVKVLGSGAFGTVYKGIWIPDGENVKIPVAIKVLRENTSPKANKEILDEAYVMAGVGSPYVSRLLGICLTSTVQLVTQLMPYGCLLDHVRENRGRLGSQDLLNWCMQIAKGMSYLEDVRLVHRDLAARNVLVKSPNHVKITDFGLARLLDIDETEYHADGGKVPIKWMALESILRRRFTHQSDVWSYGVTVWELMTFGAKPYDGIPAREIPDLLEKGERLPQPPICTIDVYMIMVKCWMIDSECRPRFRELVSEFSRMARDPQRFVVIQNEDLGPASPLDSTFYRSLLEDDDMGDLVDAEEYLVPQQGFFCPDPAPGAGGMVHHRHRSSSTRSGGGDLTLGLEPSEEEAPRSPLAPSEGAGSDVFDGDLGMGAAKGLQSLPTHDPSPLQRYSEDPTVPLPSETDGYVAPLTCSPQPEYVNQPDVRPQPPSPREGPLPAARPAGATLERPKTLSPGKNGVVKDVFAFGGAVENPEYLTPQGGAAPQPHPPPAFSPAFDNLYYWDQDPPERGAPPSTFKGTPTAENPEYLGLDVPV
Summary of the method: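 Radiometric Flashplate format: ^33P-γ-ATP transfer to immobilized biotinylated peptide, 1 h, 30° C, 1% DMSO final, enzyme in 50 mM Tris-HCl pH=8.0 + 0.1% BSA. Duplicate 8-point dilution, 100 uM down to 10 pM. IC50 from % inhibition of plate max signal versus log conc.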

[8] = test system: HeLa cervical adenocarcinoma; experiment: Inhibition of Cell Proliferation (14C-thymidine incorporation), HeLa; type: cell-based; settings: Homo sapiens, HeLa cell line
Experimental: (§3) The ability of a test compound to inhibit the proliferation of cell growth was determined by measuring incorporation of ^14C-labelled thymidine into newly synthesized DNA within the cells. This method was used on cell lines derived from carcinomas originating from several tissues such as HeLa cervical adenocarcinoma (American Type Culture Collection (ATCC), Virginia, Cat. #CCL-2), A375 malignant melanoma (ATCC CRL-1619), SK-OV-3 ovarian adenocarcinoma (ATCC HTB-77) HCT-116 colon carcinoma (CCL-247), PC-3 prostate adenocarcinoma (ATCC CRL-1435), and MDA-MB-231 (Xenogen Corp.) In this way the effect of a compound on cell growth of cells with many different phenotypes can be determined. Cells were trypsinized and counted and 3000-8000 cells were added to each well of a 96-well CytoStar tissue culture treated scintillating microplate (Amersham #RPNQ0160) in complete medium in a volume of 100 μl. Cells were incubated for 24 hours in complete medium at 37° C. in an atmosphere containing 5% CO2. Next, 1 μl of test compound in 100% DMSO was added to the wells of the plate. DMSO only was added to control wells. Cells were incubated for 24 more hours in complete medium at 37° C. in an atmosphere containing 5% CO2. Methyl ^14C-thymidine 56 mCi/mmol (NEN #NEC568 or Amersham #CFA532) was diluted in complete medium and 0.2 uCi/well was added to each well of the CytoStar plate in a volume of 20 μl. The plate was incubated for 24 hours at 37° C. plus 5% CO2 in drug plus ^14C-thymidine. The contents of the plate were discarded into a ^14C radioactive waste container by inverting the plate and the plate was washed twice with 200 μl PBS. 200 μl of PBS is added to each well. The top of the plate was sealed with a transparent plate sealer and a white plate backing sealer (Packard #6005199) was applied to the bottom of the plate. The degree of methyl ^14C-thymidine incorporation was quantified on a Packard Top Count.

A375 malignant melanoma = experiment: Inhibition of Cell Proliferation (14C-thymidine incorporation), A375; type: cell-based; settings: Homo sapiens, A-375, A375 cell line
Experimental: as §3

HCT-116 colon carcinoma = experiment: Inhibition of Cell Proliferation (14C-thymidine incorporation), HCT-116; type: cell-based; settings: Homo sapiens, HCT-116 cell line
Experimental: as §3

[9] = test system: PC-3 prostate adenocarcinoma; experiment: Inhibition of Cell Proliferation (14C-thymidine incorporation), PC-3; type: cell-based; settings: Homo sapiens, PC-3 cell line
Experimental: as §3

FGF-R2 = FGF-R2 (Homo sapiens, UniProt P21802); experiment: Kinase Selectivity Assay FGF-R2; type: biochemical; settings: Tables 2a-2k
Chain of FGF-R2 (P21802 22-821, species assumed): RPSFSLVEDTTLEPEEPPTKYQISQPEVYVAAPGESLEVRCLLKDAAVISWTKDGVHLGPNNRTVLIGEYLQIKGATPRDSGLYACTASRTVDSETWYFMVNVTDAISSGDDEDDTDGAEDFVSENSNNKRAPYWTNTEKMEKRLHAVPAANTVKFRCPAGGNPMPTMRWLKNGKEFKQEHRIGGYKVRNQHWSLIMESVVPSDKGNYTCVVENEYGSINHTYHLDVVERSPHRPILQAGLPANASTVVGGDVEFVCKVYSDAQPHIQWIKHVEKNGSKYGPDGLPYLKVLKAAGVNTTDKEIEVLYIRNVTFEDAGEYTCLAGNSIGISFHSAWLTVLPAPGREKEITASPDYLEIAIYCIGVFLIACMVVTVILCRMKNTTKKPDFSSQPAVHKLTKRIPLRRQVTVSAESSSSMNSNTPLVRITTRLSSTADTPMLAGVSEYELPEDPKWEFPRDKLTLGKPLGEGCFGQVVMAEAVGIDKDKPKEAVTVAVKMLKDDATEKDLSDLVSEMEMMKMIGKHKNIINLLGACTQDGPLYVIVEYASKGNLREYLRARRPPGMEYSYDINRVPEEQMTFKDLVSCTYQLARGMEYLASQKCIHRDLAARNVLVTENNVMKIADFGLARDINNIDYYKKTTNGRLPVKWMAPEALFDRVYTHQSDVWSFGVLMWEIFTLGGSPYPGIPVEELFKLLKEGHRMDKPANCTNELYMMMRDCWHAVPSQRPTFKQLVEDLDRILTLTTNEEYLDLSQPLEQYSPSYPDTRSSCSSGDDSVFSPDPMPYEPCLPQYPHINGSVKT
Experimental: as §1

[10] = target: T9, CDK2 in complex with cyclin A (Homo sapiens, UniProt P24941); experiment: Kinase Selectivity Assay CDK2; type: biochemical; settings: Table 1
T9 construct: purchased Upstate Biotech
Experimental: as §1, §2

[11] = target: PKC (protein kinase-C), gamma or beta isoform; experiment: Kinase Selectivity Assay PKC; type: biochemical, human; settings: Tables 2a-2k
Experimental: as §1
CDK2 in complex with cyclin A is commercially available (Upstate Biotech, Lake Placid, N.Y.). […]

CDK1:Cyclin-B = target: T10, CDK1:Cyclin-B (Homo sapiens, UniProt P06493); experiment: CDK1 Screening Assay; type: biochemical; settings: read-out: CDK1 IC50
T10 construct: purchased New England Biolabs 6020; host or cells: insect cells
T10 sequence (P06493 whole entry): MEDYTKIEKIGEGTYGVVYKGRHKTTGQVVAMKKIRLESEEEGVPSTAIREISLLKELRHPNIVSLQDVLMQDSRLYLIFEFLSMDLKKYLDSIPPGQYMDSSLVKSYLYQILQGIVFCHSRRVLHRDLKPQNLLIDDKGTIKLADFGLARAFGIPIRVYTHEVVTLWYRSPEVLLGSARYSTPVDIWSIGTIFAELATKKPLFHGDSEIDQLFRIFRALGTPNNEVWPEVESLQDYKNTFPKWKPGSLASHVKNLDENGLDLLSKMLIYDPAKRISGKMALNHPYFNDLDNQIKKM
T10 sequence (P14635 whole entry partner): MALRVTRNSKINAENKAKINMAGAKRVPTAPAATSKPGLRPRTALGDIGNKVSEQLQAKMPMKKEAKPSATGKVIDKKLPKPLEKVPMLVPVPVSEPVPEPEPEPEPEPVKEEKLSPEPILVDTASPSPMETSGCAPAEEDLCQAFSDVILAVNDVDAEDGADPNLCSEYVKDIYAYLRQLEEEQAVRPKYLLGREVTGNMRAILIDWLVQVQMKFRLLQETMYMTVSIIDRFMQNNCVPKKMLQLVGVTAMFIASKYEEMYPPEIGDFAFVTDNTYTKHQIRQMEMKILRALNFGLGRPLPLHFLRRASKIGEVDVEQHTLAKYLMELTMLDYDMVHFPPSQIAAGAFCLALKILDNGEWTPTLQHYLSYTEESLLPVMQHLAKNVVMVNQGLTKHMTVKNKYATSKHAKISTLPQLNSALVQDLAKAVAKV
Summary of the method: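 Human CDK1:cyclin-B (30 ng/well) with biotinylated histone-H1 peptide and ^33P-γ-ATP, 1 h at 30° C, 1% DMSO, on streptavidin FlashPlate; incorporation read by scintillation.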

[12] = Kinase Selectivity, Tables 2a-2k, read-out: HER2 Kinase IC50

Chain of Insulin Receptor Kinase (P06213 980-1352): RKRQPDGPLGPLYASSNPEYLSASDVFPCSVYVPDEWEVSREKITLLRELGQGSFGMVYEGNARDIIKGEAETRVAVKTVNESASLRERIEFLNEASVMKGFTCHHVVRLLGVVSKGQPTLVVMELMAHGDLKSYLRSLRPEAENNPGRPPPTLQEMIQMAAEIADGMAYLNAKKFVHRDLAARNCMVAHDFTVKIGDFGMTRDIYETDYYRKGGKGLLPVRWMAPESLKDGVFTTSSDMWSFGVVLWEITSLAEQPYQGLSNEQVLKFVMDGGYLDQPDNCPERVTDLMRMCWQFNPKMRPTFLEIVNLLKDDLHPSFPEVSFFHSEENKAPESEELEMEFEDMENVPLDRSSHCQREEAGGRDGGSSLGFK

| SMILES | IC50 (Insulin Receptor Kinase) [nM] | IC50 (Protein Kinase A) [nM] | IC50 [1] [nM] | IC50 [2] [nM] | IC50 [3] [nM] | IC50 [4] [nM] | IC50 [5] [nM] | IC50 [6] [nM] | IC50 [7, 12] [nM] | IC50 ([7]; Table 1, read-out: HER2 IC50) [nM] | IC50 [8] [nM] | IC50 (A375 malignant melanoma) [nM] | IC50 (HCT-116 colon carcinoma) [nM] | IC50 [9] [nM] | IC50 (FGF-R2) [nM] | IC50 [10] [nM] | IC50 [11] [nM] | IC50 (CDK1:Cyclin-B; Kinase Selectivity, Tables 2a-2k) [nM] | IC50 (CDK1:Cyclin-B; Table 1) [nM] |
| --- | --- | --- | --- | --- | --- | --- | --- | --- | --- | --- | --- | --- | --- | --- | --- | --- | --- | --- | --- |
| CNS(=O)(=O)c1ccc(Nc2nc(N)n(C(=O)c3sc(C)cc3C)n2)cc1 [Cpd 83, 4-[[5-amino-1-[(3,5-dimethyl-2-thienyl)carbonyl]-1H-1,2,4-triazol-3-yl]amino]-N-methyl-benzenesulfonamide] | > 10000 | > 100000 | 275 | > 100000 | > 100000 | 7 | > 100000 | 113 | 13 | 13 | 122 | 556 | 192 | 12 | 22 |  |  |  |  |
| CCc1ccc(C(=O)n2nc(Nc3ccc(S(=O)(=O)Nc4ccccn4)cc3)nc2N)s1 [Cpd 119] |  | > 100000 | 757 | > 100000 | > 100000 | 6 | > 100000 | > 10000 | 1000 | ~1000 |  |  |  |  |  | 3 | > 100000 |  |  |
| CCc1ccc(C(=O)n2nc(Nc3ccc(NS(C)(=O)=O)cc3)nc2N)s1 [Cpd 110] | 53 | > 100000 | 192 | > 5000 | > 100000 | 8 | 8750 | 285 | 6 | 5.5 | 237 | 239 | 187 |  | 153 | 5 |  |  |  |
| Cc1cc(C)c(C(=O)n2nc(Nc3ccc(-n4ccnc4)cc3)nc2N)s1 [Cpd 92, 1-[(3,5-dimethyl-2-thienyl)carbonyl]-N^3-[4-(1H-imidazol-1-yl)phenyl]-1H-1,2,4-triazole-3,5-diamine] | 3080 | > 100000 | > 10000 | > 100000 | 19700 | 21 | > 100000 | 282 |  |  | 269 |  |  | 1120 | 242 |  |  |  |  |
| Nc1ccc(F)c(C(=O)n2nc(Nc3ccc(S(N)(=O)=O)cc3)nc2N)c1F [Cpd 55, 4-[[5-amino-1-(3-amino-2,6-difluorobenzoyl)-1H-1,2,4-triazol-3-yl]amino]-benzenesulfonamide] | > 100000 | > 100000 | 9600 | > 100000 | > 100000 | 40 | 12900 | 16200 | 2190 | 2190 |  |  |  |  | 478 |  |  | 20 | 22 |
| Cc1ccc(F)c(C(=O)n2nc(Nc3ccc(S(=O)(=O)NCCN(C)C)cc3)nc2N)c1F [Cpd 105] | 9850 | > 100000 | 4490 | > 100000 | > 100000 | 82 | 18200 | 2200 |  |  | 626 | 652 | 320 |  | 142 | 2 |  |  |  |
| Cc1cc(C)c(C(=O)n2nc(Nc3ccc(S(=O)(=O)NCCN(C)C)cc3)nc2N)s1 [Cpd 107] | 311 | > 100000 | 412 | > 10000 | 3430 | 15 | > 10000 | 143 |  |  | 177 | 113 | 95 |  | 235 | 2 |  |  |  |
| Cc1ccsc1C(=O)n1nc(Nc2ccc(NS(C)(=O)=O)cc2)nc1N [Cpd 109] | 2760 | > 100000 | 1180 | > 10000 | > 100000 | 39 | > 10000 | 413 |  |  | 479 |  | 51 | 307 | 244 | 21 |  |  |  |
